In US6855730B2, “3-methylidenyl-2-indolinone modulators of protein kinase” (Sugen, Inc., priority 1998, dated 2005) one finds IC50 data, which are given here for 33 compounds.

In general, pIC50 refers to −log10 of the IC50, conventionally taken in molar units.

pIC50: −log10 of the molar value. Counter-ions that a name gives are not always drawn.

Experiment [1] has as its target T1, src protein kinase (Gallus gallus, UniProt P00523).
T1 construct: host or cells: Schizosaccharomyces pombe SP200
The experiment is described as follows: Biochemical SRC assay (phosphorylation of biotinylated peptide). Particulars: read-out: bio src IC50.
Procedure: This assay is used to determine src protein kinase activity measuring phosphorylation of a biotinylated peptide as the readout.
Yeast transformed with src (Sugen, Inc., Redwood City, Calif.). • b. Cell lysates: Yeast cells expressing src are pelleted, washed once with water, re-pelleted and stored at −80° C. until use. • c. N-terminus biotinylated [sequence] is prepared by standard procedures well known to those skilled in the art. • d. DMSO: Sigma, St. Louis, Mo. • e. […] Vecastain ELITE ABC reagent: Vector, Burlingame, Calif. • h. […] S. Pombe strain SP200 (h-s leul.32 ura4 ade210) is grown as described and transformations are pRSP expression plasmids are done by the lithium acetate method (Superti-Furga, supra). Cells are grown in the presence of 1 μM thiamine to repress expression from the nmtl promoter or in the absence of thiamine to induce expression. • i. […] Turbo TMB-ELISA peroxidase substrate: Pierce Chemical.
Buffer Solutions • a. PBS (Dulbecco's Phosphate-Buffered Saline): GIBCO PBS, GIBCO Cat. #450-1300EB. • b. Blocking Buffer: 5% Non-fat milk (Carnation) in PBS. • c. Carbonate Buffer: Na2CO4 from Fischer, Cat. # S495, make up 100 mM stock solution. • d. Kinase Buffer: 1.0 ml (from 1M stock solution) MgCl2, 0.2 ml (from a 1M stock solution) MnCl2, 0.2 ml (from a 1M stock solution) DTT, 5.0 ml (from a 1M stock solution) HEPES, 0.1 ml TX-100, bring to 10 ml total volume with MilliQ H2O. • e. […] NaCl: Fischer Cat. # S271-10, Make up 5M stock solution with MilliQ H2O. • i. […] MgCl2: Fischer Cat. # M33-500, make up 1M stock solution with MilliQ H2O. • k. […] MnCl2: Fischer Cat. # M87-100, make up 1M stock solution with MilliQ H2O. • n. DTT: -Fischer Cat. # BP172-5. • o. […] Kinase Reaction Mixture: Amount per assay plate (100 wells): 1.0 ml Kinase Buffer, 200 λg GST-ζ, bring to final volume of 8.0 ml with MilliQ H2O. • q. […] Then add 1 drop of reagent B. Put tube on orbital shaker at room temperature and mix for 30 minutes.
Preparation of src Coated ELISA Plate. • 1. Coat ELISA plate with 0.5 μg/well anti-src mab in 100 μl of pH 9.6 sodium carbonate buffer, hold at 40° C. overnight. • 2. Wash wells once with PBS. • 3. […] Wash plate 5× with PBS. • 5. Add 10 μg/well of src transformed yeast lysates diluted in Lysis Buffer (0.1 ml total volume per well). (Amount of lysate may vary between batches.) Shake plate for 20 minutes at room temperature.
Preparation of Phosphotyrosine Antibody-coated ELISA Plate. • 1. 4G10 plate: coat 0.5 μg/well 4G10 in 100 μl PBS overnight at 4° C. and block with 150 μl of 5% milk in PBS for 30 minutes at room temperature.
Kinase Assay Procedure. • 1. Remove unbound proteins from plates and wash plates 5× with PBS. • 2. […] Wash plate 5× with TBST. • 10. Incubate with Vectastain ELITE ABC reagent (100 μl/well) for 30 min. at room temperature. • 11. Wash the wells 5× with TBST. • 12. Develop with Turbo TMB.

In experiment [2] the target is T2, PDGFR-β (Homo sapiens, UniProt P09619).
T2 construct: host or cells: NIH 3T3
T2 sequence (P09619 33-1106): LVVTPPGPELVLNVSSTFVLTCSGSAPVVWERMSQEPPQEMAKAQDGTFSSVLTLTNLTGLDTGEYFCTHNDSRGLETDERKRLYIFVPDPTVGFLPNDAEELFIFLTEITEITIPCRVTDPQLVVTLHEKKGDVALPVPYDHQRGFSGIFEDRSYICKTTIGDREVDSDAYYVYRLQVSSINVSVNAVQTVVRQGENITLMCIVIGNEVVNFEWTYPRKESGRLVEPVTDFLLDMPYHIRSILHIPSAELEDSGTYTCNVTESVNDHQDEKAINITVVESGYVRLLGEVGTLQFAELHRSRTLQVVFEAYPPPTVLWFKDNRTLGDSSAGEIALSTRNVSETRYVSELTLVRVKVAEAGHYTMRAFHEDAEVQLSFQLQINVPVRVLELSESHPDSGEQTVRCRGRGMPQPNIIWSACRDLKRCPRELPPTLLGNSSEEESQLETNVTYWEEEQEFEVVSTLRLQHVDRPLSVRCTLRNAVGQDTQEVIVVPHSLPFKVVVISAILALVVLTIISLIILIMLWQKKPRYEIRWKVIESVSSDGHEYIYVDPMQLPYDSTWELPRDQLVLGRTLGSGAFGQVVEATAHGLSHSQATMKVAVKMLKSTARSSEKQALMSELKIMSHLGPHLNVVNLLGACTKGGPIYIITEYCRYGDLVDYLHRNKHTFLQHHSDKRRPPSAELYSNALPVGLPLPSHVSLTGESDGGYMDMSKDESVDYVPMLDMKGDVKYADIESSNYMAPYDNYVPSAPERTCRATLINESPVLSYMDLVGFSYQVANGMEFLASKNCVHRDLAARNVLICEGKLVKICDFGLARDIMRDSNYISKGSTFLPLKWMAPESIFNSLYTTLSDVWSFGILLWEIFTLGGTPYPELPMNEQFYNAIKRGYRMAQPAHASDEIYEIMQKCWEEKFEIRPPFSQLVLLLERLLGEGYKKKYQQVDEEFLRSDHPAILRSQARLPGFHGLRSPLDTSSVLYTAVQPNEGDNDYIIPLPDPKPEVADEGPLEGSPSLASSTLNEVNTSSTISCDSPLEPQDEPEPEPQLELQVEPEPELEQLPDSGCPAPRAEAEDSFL
The experiment can be described thus: Biochemical PDGFR assay (ELISA, PDGFR-β expressing NIH 3T3 cell lysate). Particulars: read-out: bio PDGF IC50. Put shortly: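 Phosphorylation was read by ELISA (anti-phosphotyrosine serum, peroxidase secondary, ABTS at 410 nm) after a 30 min room-temperature reaction with 20 μM ATP, EDTA-stopped. Kinase was lysate-derived PDGFR-β (NIH 3T3) immobilised via 28D4C10 antibody, compound added 30 min before ATP.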

In experiment [3] the target is Myc-GyrB-FGFR fusion protein (Homo sapiens, UniProt P11362). The experiment can be described thus: Biochemical FGFR assay (ELISA). Particulars: read-out: bio fgfR1 IC50. A general note: ELISA stands for enzyme-linked immunosorbent assay.
Chain of Myc-GyrB-FGFR fusion protein (P11362 478-767 limits assumed): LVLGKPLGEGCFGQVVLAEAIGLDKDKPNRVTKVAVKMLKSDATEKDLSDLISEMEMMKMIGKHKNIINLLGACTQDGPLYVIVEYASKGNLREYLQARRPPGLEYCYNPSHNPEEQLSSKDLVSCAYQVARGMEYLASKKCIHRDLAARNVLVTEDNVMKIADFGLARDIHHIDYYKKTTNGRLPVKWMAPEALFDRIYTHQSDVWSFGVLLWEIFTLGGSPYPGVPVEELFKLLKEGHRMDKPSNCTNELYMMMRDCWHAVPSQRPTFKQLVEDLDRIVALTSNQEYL
Procedure: This assay measures in vitro kinase activity of the Myc-GyrB-FGFR fusion protein using ELISA.
Materials and Reagents • 1. HNTG
PBS (Dulbecco's Phosphate-Buffered Saline, Gibco Catalog # 450-1300EB). • 3. Blocking Buffer. • 4. Kinase Buffer.
Working solution: 100 mM in ethanol. • 6.
ABTS Solution. • 10. Hydrogen peroxide 30% solution ( Fisher Catalog # H325). • 11. ABTS/H2O2. • 12. 0.2 M HCl. • 13.
Prepare 1.0 mM solution in MilliQ H2O, adjust pH to 7.2 with HCl. • 14.
Prepare 5 M solution in MilliQ H2O. • 15. MgCl, (Fisher Cat. No. M33-500).
Prepare 1 M solution in MilliQ H2O. • 16. HEPES (Fisher Cat. No. BP310-500).
Prepare 1 M solution in MilliQ H2O, adjust pH to 7.5, sterile filter. • 17. TBST Buffer. • 18. Sodium Carbonate Buffer (Fisher Cat. No. S495).
Prepare 0.1 M solution in MilliQ H2O, adjust pH to 9.6 with NaOH, filter. • 19. Dithiothreitol (DTT, Fisher Cat. No. BP172-25).
Prepare 0.5 mM working solution in MilliQ H2O just prior to-use. Store at −20° C. until used, discard any leftover. • 20. MnCl2. • 21. Triton X-100. • 22. Goat α-Rabbit IgG (Cappel). • 23. Affinity purified Rabbit α GST GyrB (Biochemistry Lab. SUGEN, Inc.).
All of the following steps are conducted at room temperature unless otherwise indicated. • 1. Coat Corning 96-well ELISA plates with 2 μg Goat α-Rabbit antibody per well in Carbonate Buffer such that total well volume is 100 μl. Store overnight at 40° C. • 2. Remove unbound Goat a-Rabbit antibody by inverting plate to remove liquid. Pat plate on a paper towel to remove excess liquid and bubbles • 3.. Add 150 μl Blocking Buffer (5% Low Fat Milk in PBS) to each well. Incubate while shaking on a micro-titer plate shaker for 30 min. • 4. Wash 4× with TBST. Pat plate on a paper towel to remove excess liquid and bubbles. • 5. Add 0.5 μg Rabbit α-GyrB antibody per well. Dilute antibody in DPBS to a final volume of 100 μl per well. Incubate with shaking on a micro-titer plate shaker at room temperature for 1 hour. • 6. Wash 4× with TBST as described in step 4. • 7. Add 2 μg COS/FGFR cell lysate (Myc-GyrB-FGFR source) in HNTG to each well to give a final volume of 100 μl per well. Incubate with shaking on a micro-titer plate shaker for 1 hour. • 8. Wash 4× with TBST as described in step 4. • 9. Add 80 μl of 1× kinase buffer per well. • 10. […] Transfer 10 μ l of diluted test compound solution and control wells from polypropylene plate wells to the corresponding ELISA plate wells, incubate with shaking on a micro-titer plate shaker for 20 minutes. • 12. Add 10 μl of 70 μM ATP diluted in kinase buffer to positive control and test wells (Final ATP concentration is 7 EM/well). Add 10 μl 1× kinase buffer to negative control wells. Incubate with shaking on a micro-titer plate shaker for 15 min. • 13. Stop kinase reaction by adding 5 μl 0.5 M EDTA to all wells. • 14. Wash 4× with TBST as described in step 4. • 15. Add 100 μl biotin conjugated α-phosphotyrosine mab (b4G10) diluted in TBST to each well. Incubate with shaking on a micro-titer plate shaker for 30 minutes. • 16. Prepare Vectastain ABC reagent. […] Mix by inverting tube several times. Add 1 drop reagent B and mix again. • 17. Wash 4× with TBST as described in step 4. • 18. Add 100 μl ABC HRP reagent to each well. Incubate with shaking on a micro-titer plate shaker for 30 minutes. • 19. Wash 4× with TBST as described in step 4. • 20. Add 100 μl of ABTS/H2O2 solution to each well. • 22. Incubate 5 to 15 minutes with shaking. Remove any bubbles. • 23. If necessary stop reaction by adding 1 00 μl of 0.2M HCl/well. • 24.
Experiment [4] addresses T3, flkGST (Homo sapiens, UniProt P35968).
T3 construct: GST
The experiment can be described thus: bio flkGST assay. Format: biochemical.

The test system of experiment [5] is SKOV3 cells. The experiment is described as follows: SKOV3 growth assay (2% FBS). The class given is cell-based. The settings on record: Homo sapiens, SK-OV-3, read-out: SKOV3 growth (2% FBS) IC50.

T3 sequence (P35968 786-1356 limits assumed): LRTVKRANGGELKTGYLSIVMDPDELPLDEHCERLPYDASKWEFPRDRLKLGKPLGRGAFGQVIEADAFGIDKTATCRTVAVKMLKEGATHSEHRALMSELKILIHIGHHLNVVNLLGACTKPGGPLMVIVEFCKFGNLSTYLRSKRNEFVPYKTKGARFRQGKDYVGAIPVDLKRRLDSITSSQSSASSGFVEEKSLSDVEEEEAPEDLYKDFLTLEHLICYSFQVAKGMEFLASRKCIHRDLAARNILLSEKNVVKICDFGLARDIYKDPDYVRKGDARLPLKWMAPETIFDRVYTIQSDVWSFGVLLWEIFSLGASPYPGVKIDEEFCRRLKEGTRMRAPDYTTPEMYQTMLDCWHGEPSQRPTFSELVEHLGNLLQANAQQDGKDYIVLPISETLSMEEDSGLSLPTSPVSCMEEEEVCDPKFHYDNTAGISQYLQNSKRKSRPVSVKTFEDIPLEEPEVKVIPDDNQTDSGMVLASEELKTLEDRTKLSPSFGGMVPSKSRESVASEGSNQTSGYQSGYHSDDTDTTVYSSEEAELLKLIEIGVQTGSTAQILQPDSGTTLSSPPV

Regarding `Cc1c(/C=C2\C(=O)Nc3ccc(C(=O)O)cc32)[nH]c2ccccc12` [Example 156, 3-(3-Methyl-1H-indol-2-ylmethylene)-2-oxo-2,3-dihydro-1H-indole-5-carboxylic acid (piperidine salt)], the pIC50 was 6.82 in experiment [1], 5.08 in experiment [2] and 5.44 in experiment [3].

For the compound `COc1ccc(/C=C2/C(=O)Nc3ccc(F)cc32)cc1C1CCCC1` [Example 11, 3-(3-Cyclopentyl-4-methoxybenzylidene)-5-fluoro-1,3-dihydroindol-2-one], the negative logarithm of the IC50 (pIC50) is less than 4.00 in experiment [2], 4.62 in experiment [4] and 4.82 in experiment [5].

As for `COc1cc(/C=C2/C(=O)Nc3ccccc32)c(-c2ccc3ccccc3c2)cc1OC` [Example 62, 3-(4,5-Dimethoxy-2-naphthalen-2-ylbenzylidene)-1,3-dihydroindol-2-one], the pIC50 in experiment [2] is less than 4.00; in experiment [5] it was 5.21. Regarding `CC1(C)CCc2cc(C=C3C(=O)Nc4ccc(Br)cc43)ccc2O1` (racemic) [Example 34, 5-Bromo-3-(2,2-dimethylchroman-6-ylmethylene)-1,3-dihydroindol-2-one], the negative logarithm of the IC50 (pIC50) was 4.25 in experiment [2] and 5.12 in experiment [5]. Consider `CCOc1cccc(-c2cc(C=C3C(=O)Nc4ccccc43)ccc2OC)c1` [Example 46, 3-(3′-Ethoxy-6-methoxybiphenyl-3-ylmethylene)-1,3-dihydroindol-2-one], for which the figures for the negative logarithm of the IC50 (pIC50) in experiment [2] and in experiment [5] were less than 4.00 and 5.11, respectively.

As for `COc1cc(C)c(C=C2C(=O)Nc3cc(NC(C)=O)ccc32)cc1C(C)C` [Example 27, N-[3-(5-Isopropyl-4-methoxy-2-methyl-benzylidene)-2-oxo-2,3-dihydro-1H-indol-6-yl]-acetamide], the negative-log IC50 (pIC50) in experiment [2] was less than 4.00; in experiment [5] it was 5.29. As for `CC(C)c1cc(/C=C2/C(=O)Nc3ccc(Cl)cc32)cc(C(C)C)c1OCCN1CCOCC1` [Example 24, 5-chloro-3-[3,5-diisopropyl-4-(2-morpholin-4-ylethoxy)-benzylidene]-1,3-dihydroindol-2-one], the pIC50 was less than 4.00 in experiment [2] and 5.19 in experiment [5]. Regarding `COc1ccc(C=C2C(=O)Nc3ccccc32)cc1-c1cccc(NC(C)=O)c1` [Example 29, N-[2′-Methoxy-5′-(2-oxo-1,2-dihydroindol-3-ylidenemethyl)-biphenyl-3-yl]-acetamide], the pIC50 in experiment [2] was less than 4.00; in experiment [5], 5.10. In the case of `CCOc1cccc(-c2cc(OC)c(OC)cc2/C=C2/C(=O)Nc3ccccc32)c1` [Example 58, 3-(3′-Ethoxy-4,5-dimethoxybiphenyl-2-ylmethylene)-1,3-dihydroindol-2-one], the values for the pIC50 in experiment [2] and in experiment [5] were less than 4.00 and 4.66, respectively.

As to `COc1cc(C=C2C(=O)Nc3ccccc32)c(-c2ccccc2OC)cc1OC` [Example 49, 3-(4,5,2′-Trimethoxybiphenyl-2-ylmethylene)-1,3-dihydroindol-2-one], the negative-log IC50 (pIC50) in experiment [2] is less than 4.00; in experiment [5], 4.69.

As for `COc1cc(C)c(/C=C2/C(=O)Nc3ccc(F)cc32)cc1C(C)C` [Example 30, 5-Fluoro-3-(5-isopropyl-4-methoxy-2-methyl-benzylidene)-1,3-dihydroindol-2-one], the results for the pIC50 in experiment [2] and in experiment [5] were less than 4.00 and 4.80, respectively.

In the case of `COc1cc(C)c(/C=C2/C(=O)Nc3ccc(Br)cc32)cc1C(C)C` [Example 36, 5-Bromo-3-(5-isopropyl-4-methoxy-2-methyl-benzylidene)-1,3-dihydroindol-2-one], the results for the pIC50 in experiment [2] and in experiment [5] were less than 4.00 and less than 4.60, respectively.

With `CC1(C)CCc2cc(/C=C3/C(=O)Nc4ccc(Cl)cc43)ccc2O1` [Example 15, 5-Chloro-3-(2,2-dimethyl-chroman-6-ylmethylene)-1,3-dihydroindol-2-one], the pIC50 in experiment [2] is 4.58; in experiment [5], 5.15. Consider `COc1cccc(-c2cc(OC)c(OC)cc2/C=C2/C(=O)Nc3ccc(Cl)cc32)c1` [Example 61, 5-Chloro-3-(4,5-3′-Trimethoxybiphenyl-2-ylmethylene)-1,3-dihydroindol-2-one], for which the figures for the pIC50 in experiment [2] and in experiment [5] were less than 4.00 and less than 4.60, respectively. As for `COc1ccc(/C=C2/C(=O)Nc3cc(NC(C)=O)ccc32)cc1-c1ccsc1` [Example 18, N-[3-(4-Methoxy-3-thiophene-3-ylbenzylidene)-2-oxo-2,3-dihydro-1H-indol-6-yl]-acetamide], the pIC50 was 4.06 in experiment [2] and 6.00 in experiment [5].

Regarding `CC(=O)Nc1ccc2c(c1)NC(=O)/C2=C/c1ccc(OCCN2CCOCC2)c(C2CCCCC2)c1` [Example 16, N-{3-[3-Cyclohexyl-4-(2-morpholin-4-ylethoxy)-benzylidene]-2-oxo-2,3-dihydro-1H-indol-6-yl}-acetamide], the figures for the pIC50 in experiment [2] and in experiment [5] were less than 4.00 and 5.23, respectively. With `CC(C)c1cc(/C=C2/C(=O)Nc3ccc(Br)cc32)cc(C(C)C)c1OCCN1CCOCC1` [Example 57, 5-Bromo-3-[3,5-diisopropyl-4-(2-morpholin-4-ylethoxy)benzylidene]-1,3-dihydroindol-2-one], the pIC50 in experiment [2] was less than 4.00; in experiment [5], 5.40. On the same counts, the results for `COc1ccc(/C=C2/C(=O)Nc3ccc(Cl)cc32)cc1-c1cccnc1` [Example 60] are 4.61 and 5.32. On to `COc1ccc(/C=C2/C(=O)Nc3ccc(CCN4CCOCC4)cc32)cc1-c1ccsc1` [Example 26, 3-(4-Methoxy-3-thiophen-3-ylbenzylidene)-5-(2-morpholin-4-yl-ethyl)-1,3-dihydroindol-2-one], for which the pIC50 in experiment [5] is 5.27.

With `COc1ccc(/C=C2/C(=O)Nc3ccccc32)cc1-c1ccsc1` [Example 35, 3-(4-Methoxy-3-thiophen-3-ylbenzylidene)-1,3-dihydroindol-2-one], the negative logarithm of the IC50 (pIC50) is less than 4.00 in experiment [2] and 4.79 in experiment [5]. With `CC(=O)Nc1ccc2c(c1)NC(=O)/C2=C\c1ccc2c(c1)CCC(C)(C)O2` [Example 33, N-[3-(2,2-Dimethylchroman-6-ylmethylene)-2-oxo-2,3-dihydro-1H-indol-6-yl]-acetamide], the pIC50 was less than 4.00 in experiment [2] and 4.99 in experiment [5].

With `COc1ccc(C=C2C(=O)Nc3cc(NC(C)=O)ccc32)cc1-c1cccc(NC(C)=O)c1` (mixture of isomers) [Example 63, N-[3-(3′-Acetylamino-6-methoxybiphenyl-3-ylmethylene)-2-oxo-2,3-dihydro-1H-indol-6-yl]-acetamide], the pIC50 was less than 4.00 in experiment [2] and less than 4.60 in experiment [5]. For `COc1ccc(/C=C2/C(=O)Nc3ccc(Cl)cc32)cc1-c1cccs1` [Example 59, 5-chloro-3-(4-Methoxy-3-thiophen-2-ylbenzylidene)-1,3-dihydroindol-2-one], the values for the pIC50 in experiment [2] and in experiment [5] were less than 4.00 and 4.76, respectively. Regarding `CNS(=O)(=O)c1ccc2c(c1)C(=Cc1[nH]c3ccccc3c1C)C(=O)N2` (racemic) [Example 154, 3-(3-Methyl-1H-indol-2-ylmethylene)-2-oxo-2,3-dihydro-1H-indole-5-sulfonic acid methylamide], the results for the negative logarithm of the IC50 (pIC50) in experiment [1], in experiment [2] and in experiment [3] were less than 4.00, less than 4.00 and less than 4.70, respectively. On to `COc1ccc(/C=C2/C(=O)Nc3ccccc32)cc1C(C)C` [Example 7, 3-(3-Isopropyl-4-methoxybenzylidene)-1,3-dihydroindol-2-one], for which the pIC50 in experiment [5] was 5.60. On to `CC(=O)Nc1ccc2c(c1)NC(=O)/C2=C/c1ccc(OCCN2CCOCC2)c(-c2cccs2)c1` [Example 40, N-{3-[4-(2-Morpholin-4-ylethoxy)-3-thiophen-2-ylbenzylidene]-2-oxo-2,3-dihydro-1H-indol-6-yl}-acetamide], for which the pIC50 in experiment [2] is less than 4.00; in experiment [5], 4.65. Turning to `COc1c(C)cc(/C=C2/C(=O)Nc3ncccc32)cc1C` [Example 56, 3-(4-Methoxy-3,5-dimethylbenzylidene)-1,3-dihydropyrrolo[2,3-b]pyridin-2-one], in experiment [5], the pIC50 is less than 4.70. For the compound `COc1cc(/C=C2/C(=O)Nc3ccccc32)c(-c2cccs2)cc1OC` [Example 39, 3-(4,5-Dimethoxy-2-thiophen-2-ylbenzylidene)-1,3-dihydroindol-2-one], the negative-log IC50 (pIC50) in experiment [2] was less than 4.00; in experiment [5], 5.02. For the compound `CC1(C)CCc2cc(/C=C3/C(=O)Nc4ccc(F)cc43)ccc2O1` [Example 23, 3-(2,2-Dimethylchroman-6-ylmethylene)-5-fluoro-1,3-dihydroindol-2-one], the pIC50 in experiment [5] is 4.75. Consider `COc1c(C(C)C)cc(/C=C2/C(=O)Nc3cc(NC(C)=O)ccc32)cc1C(C)C` [Example 3, N-[3-(3,5-Diisopropyl-4-methoxybenzylidene)-2-oxo-2,3-dihydro-1H-indol-6-yl]-acetamide], for which, in experiment [5], the pIC50 is 5.59.

In the case of `COc1ccc(/C=C2/C(=O)Nc3cc(NC(C)=O)ccc32)cc1-c1cccs1` [Example 31, N-[3-(4-Methoxy-3-thiophen-2-ylbenzylidene)-2-oxo-2,3-dihydro-1H-indol-6-yl]-acetamide], the negative-log IC50 (pIC50) is less than 4.00 in experiment [2] and 6.40 in experiment [5]. For the compound `COc1ccc(/C=C2/C(=O)Nc3ncccc32)cc1C1CCCC1` [Example 47, 3-(3-Cyclopentyl-4-methoxybenzylidene)-1,3-dihydropyrrolo[2,3-b]pyridin-2-one], the pIC50 in experiment [5] is 4.33.

In the case of `COc1ccc(/C=C2/C(=O)Nc3ccc(Br)cc32)cc1-c1ccccc1` [Example 13, 5-Bromo-3-(6-methoxybiphenyl-3-ylmethylene)-1,3-dihydroindol-2-one], the negative-log IC50 (pIC50) in experiment [2] was less than 4.00; in experiment [5], 4.67.
